# Data reported in patent publication US12018027B2, “Macrocyclic derivatives acting as XIa factor inhibitor” (CHINA RESOURCES BIOPHARMACEUTICAL COMPANY LIMITED, priority 2019, dated 2024).
# Experiments:
# Pharmacokinetics in rats = type: in vivo; details: male SD rats
# Experimental: 3. Pharmacokinetics in Rats
# To determine the pharmacokinetic parameters of the compounds disclosed herein in rats
# 1) Experimental drug: compound 1-2;
# 2) Experimental animals: 4 male SD rats aged 7-9 weeks, randomly divided into 2 groups, 2 rats for each group;
# 3) Drug preparation: a proper amount of the drug was weighed out and dissolved in a mixed solvent of DMAC:solutol:water=10:10:80 to prepare two solutions of 0.2 mg/mL and 0.5 mg/mL, respectively;
# Animals in group 1 were administered with the 0.2 mg/mL drug at a dose of 0.5 mg/kg by single injection via the tail vein, and animals in group 2 were administered with the 0.5 mg/mL compound at a dose of 3 mg/kg by gavage. Animal plasma samples were collected 0.0833 (only the tail vein injection group), 0.25, 0.5, 1, 2, 4, 6, 8 and 24 h after administration. The drug concentration in plasma samples was determined using LC-MS/MS method, and the kinetic parameters of the test drug are shown in Table 3: […]
# human plasma = assay: Human plasma in vitro aPTT (activated partial thromboplastin time); type: biochemical
# Experimental: 2. Testing of Human Plasma in vitro aPTT (Activated Partial Thromboplastin Time)
# To test the anticoagulant effect of the compounds disclosed herein against human plasma in vitro
# 1) Plasma: fresh human venous blood was mixed well with 0.109 M sodium citrate at a ratio of 9:1, and then the mixture was centrifuged at 3000 rpm for 15 min. The upper plasma was collected and tested within 2-5 h.
# 2) Reagents: aPTT reagent (activated partial thromboplastin time kit, mindray), PT reagent (prothrombin time kit, mindray), and calcium chloride solution.
# 3) Instruments: coagulometer (Beijing Precil, C2000-4).
# Test compounds were each dissolved in DMSO to prepare a 10 mM stock solution. The plasma was serially diluted to 400 μM, 200 μM, 100 μM, 50 μM, 25 μM, 12.5 μM, 6.25 μM, 3.125 μM, 1.563 μM, 0.781 μM, 0.390 μM and 0.195 μM with the 10 mM stock solution of each compound, and the blank control was 100% DMSO. The reagents, plasma and compounds were placed at corresponding positions in a coagulometer to detect the aPTT and PT of the compounds.
# The concentrations of compounds corresponding to aPTT2× and PT2× (i.e., aPTT and PT of 2-fold blank control) were calculated by Prism curve fitting and the results are shown in Table 2 below: […]
# Human Factor XIa = Human Factor XIa (Homo sapiens (Human), UniProt P03951); assay: Screening assay for inhibitory activity against enzyme hFXIa (human factor XIa); type: biochemical; details: substrate S-2366, pH 7.4, 37° C., absorbance 405 nm
# Experimental: 1. Screening Assay for Inhibitory Activity against Enzyme hFXIa (Human Factor XIa)
# To Test the Inhibitory Activity of the Compounds Disclosed herein Against Human Factor XIa
# 100 mM Tris-HCl (Sigma, Cat. No.: T2663, Lot No.: SLBG2775)
# Enzyme: Human Factor XIa (Abcam, Cat No.: ab62411), total amount of 50 μg; dissolved in assay buffer and packaged.
# 3) Instruments and consumables
# SpectraMax 340PC multifunctional microplate reader (Molecular Devices)
# 384-well black transparent reaction plate (Corning, Cat. No.: 3712)
# Echo liquid workstation (Labcyte)
# A 384-well polypropylene compound plate (Labcyte-P-05525) was used in Echo
# A 384 shallow-well polypropylene compound plate (Labcyte-LP-0200, 2.5-12 μL) was used in Echo
# Mutidrop automatic dispenser (Thermo Scientific)
# Mutidrop consumables (Thermo Scientific-24073290)
# Test compounds were each dissolved in DMSO to prepare a 10 mM solution and stored in a nitrogen cabinet.
# 1) Preparation for compounds
# All test compounds were prepared using Echo, subjected to gradient dilution and transferred to a 384-well reaction plate at 100 nL. The reference compound and the test samples, with an initial concentration of 200 μM, were subjected to 3-fold dilution to get 10 concentrations (the final concentration was 1 μM). To high signal wells were added DMSO, and to low signal wells were added 100 μM reference compound. Reference can be made to the sample distribution for distributions of samples and control.
# 1) Preparation for enzyme human factor XIa
# Enzyme human factor XIa was diluted to 0.5 μg/mL with assay buffer.
# 3) Preparation for substrate S-2306
# S-2306 was prepared at a concentration of 1 mM using the assay buffer.
# 4) 10 μL of 0.5 μg/mL enzyme human factor XIa was added to the reaction plate using a Mutidrop automatic dispenser and the final concentration was 5 ng/well.
# 5) 10 μL of 1 mM S-2306 was added to the reaction plate using a Mutidrop automatic dispenser and the final concentration was 0.5 mM.
# 6) Centrifugation was performed at 1000 rpm for 10 s.
# 7) The reaction plate was incubated in SpectraMax 340PC at 37° C. for 10 min and the absorbance was measured at 405 nm.
# 8) Data were analyzed using GraphPad Prism 5.0.
# % inhibition rate=100%×[1—(sample reading—mean of low signal wells)/(mean of high signal wells—mean of low signal wells)]
# IC50 was analyzed using […]:
# Y=Bottom+(Top−Bottom)/(1+10^((LogIC50−X)*Hill Slope))
# Y is % inhibition rate and X is the logarithm of the sample concentration.
# Chain of Human Factor XIa (P03951 388-625): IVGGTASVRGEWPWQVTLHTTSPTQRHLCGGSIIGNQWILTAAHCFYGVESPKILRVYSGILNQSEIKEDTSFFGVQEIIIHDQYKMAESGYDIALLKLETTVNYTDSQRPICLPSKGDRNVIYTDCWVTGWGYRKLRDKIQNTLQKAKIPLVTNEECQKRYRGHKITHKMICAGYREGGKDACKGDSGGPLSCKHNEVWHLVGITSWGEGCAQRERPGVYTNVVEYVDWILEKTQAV
# Chain of Human Factor XIa (P03951 19-387 partner): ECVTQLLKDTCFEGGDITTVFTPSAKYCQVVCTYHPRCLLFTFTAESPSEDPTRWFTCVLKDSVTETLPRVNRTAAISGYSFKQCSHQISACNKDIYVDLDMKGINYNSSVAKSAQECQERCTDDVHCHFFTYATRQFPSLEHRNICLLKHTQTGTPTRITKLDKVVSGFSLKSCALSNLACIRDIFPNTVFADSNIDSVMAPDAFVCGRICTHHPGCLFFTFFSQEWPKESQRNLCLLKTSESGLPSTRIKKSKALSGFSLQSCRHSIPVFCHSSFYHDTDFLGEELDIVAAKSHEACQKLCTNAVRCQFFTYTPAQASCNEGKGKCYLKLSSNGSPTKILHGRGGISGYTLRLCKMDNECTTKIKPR
SMILES,aPTT2× (concentration giving aPTT of 2-fold blank control) (human plasma) [µM],IC50 (Human Factor XIa) [nM],other results
"C[C@@H]1CCC[C@@H](c2ccc(-c3cc(Cl)ccc3-n3cc(Cl)nn3)oc2=O)c2cc(ccn2)-c2c(cnn2C(F)F)NC1=O (single isomer, unassigned) [Compound 1-2]",0.87,3.9,"Bioavailability F (Pharmacokinetics in rats; gavage 3 mg/kg vs tail vein injection 0.5 mg/kg): 37.1%; Area under curve AUC (Pharmacokinetics in rats; gavage, 3 mg/kg): 5.205 µM·h; Time of peak concentration T1/2 (Pharmacokinetics in rats; gavage, 3 mg/kg): 3 h; Cmax (Pharmacokinetics in rats; gavage, 3 mg/kg, read-out: Peak concentration Cmax): 986 nM; Area under curve AUC (Pharmacokinetics in rats; tail vein injection, 0.5 mg/kg): 2.339 µM·h; Clearance Cl (Pharmacokinetics in rats; tail vein injection, 0.5 mg/kg): 5.65 mL/min/kg; Half life T1/2 (Pharmacokinetics in rats; tail vein injection, 0.5 mg/kg): 1.04 h; Volume of distribution Vd (Pharmacokinetics in rats; tail vein injection, 0.5 mg/kg): 0.533 L/kg; C0 (Pharmacokinetics in rats; tail vein injection, 0.5 mg/kg, read-out: Initial concentration C0): 1800 nM"
"C[C@H]1CCC[C@@H](c2ccc(-c3cc(Cl)ccc3-n3cc(Cl)nn3)oc2=O)c2cc(ccn2)-c2c(cnn2C(F)F)NC1=O (single isomer, unassigned) [Compound 1-4]",–,34.1,–
"C[C@@H]1CCC[C@@H](c2ccc(-c3cc(Cl)ccc3-n3cc(C(F)F)nn3)oc2=O)c2cc(ccn2)-c2c(cnn2C(F)F)NC1=O (single isomer, unassigned) [Compound 3-1]",1.37,3.81,–
"C[C@@H]1CCC[C@@H](c2ccc(-c3cc(Cl)ccc3-n3cc(C4CC4)nn3)oc2=O)c2cc(ccn2)-c2c(cnn2C(F)F)NC1=O (single isomer, unassigned) [Compound 4-1]",–,21.7,–
"C[C@@H]1CCC[C@@H](c2ccc(-c3cc(Cl)ccc3-n3cc(Cl)nn3)n(C)c2=O)c2cc(ccn2)-c2c(cnn2C(F)F)NC1=O (single isomer, unassigned) [Compound 5-1]",–,8.22,–
"CCOc1cn(-c2ccc(Cl)cc2-c2ccc([C@@H]3CCC[C@@H](C)C(=O)Nc4cnn(C(F)F)c4-c4ccnc3c4)c(=O)o2)nn1 (single isomer, unassigned) [Compound 6-2]",–,20.4,–
C[C@@H]1CCC[C@@H](c2ccc(-c3cc(Cl)ccc3-n3ccnn3)oc2=O)c2cc(ccn2)-c2c(cnn2C(F)F)NC1=O [Compound 2-1],0.65,3.39,–
C[C@@H]1CCC[C@H](c2ccc(-c3cc(Cl)ccc3-n3ccnn3)oc2=O)c2cc(ccn2)-c2c(cnn2C(F)F)NC1=O [Compound 2-2],–,10.7,–
